Organism: Mus musculus
Assay: Hepatotoxicity in mouse assessed as carcinogenic potency
Settings: in vivo

| Compound | pTD50 |
| --- | --- |
| Nc1ccc(Sc2ccc(N)cc2)cc1 [4,4'-THIODIANILINE] | 3.809 |
| Nc1ccc(Cl)cc1N | 1.73 |
| ClC(Cl)=C(Cl)Cl [TETRACHLOROETHYLENE] | 3.1 |
| ClCCl [METHYLENE CHLORIDE] | 1.581 |
| S=C1NCCN1 [ETHYLENE THIOUREA] | 3.341 |
| O=C1NC(=O)C(c2ccccc2)(c2ccccc2)N1 [PHENYTOIN] | 3.18 |
| FC(F)=C(F)F [TETRAFLUOROETHYLENE] | 2.907 |
| Cc1noc(NS(=O)(=O)c2ccc(N)cc2)c1C [SULFISOXAZOLE] | 2.004 |
| Nc1cc(Cl)c(N)c(Cl)c1 | 1.941 |
| CNc1ccc(N(CCO)CCO)cc1[N+](=O)[O-] [HC BLUE NO. 1] | 2.953 |
| Nc1cccc2c(N)cccc12 | 3.14 |
| Cc1ccc([N+](=O)[O-])cc1N | 2.74 |
| C=CC(=C)Cl [CHLOROPRENE] | 3.689 |
| Nc1ccccc1C(=O)OC/C=C/c1ccccc1 [CINNAMYL ANTHRANILATE] | 1.529 |
| ClC(Cl)=C(c1ccc(Cl)cc1)c1ccc(Cl)cc1 [DICHLORODIPHENYLDICHLOROETHYLENE] | 4.492 |
| Cc1ccc(Cl)cc1N | 2.77 |
| ClC=C(Cl)Cl [TRICHLOROETHYLENE] | 2.16 |
| Nc1cc(Cl)cc(C(=O)O)c1Cl [CHLORAMBEN] | 1.607 |
| O=[N+]([O-])c1ccc2[nH]cnc2c1 | 2.458 |
| ClCC(Cl)CCl [1,2,3-TRICHLOROPROPANE] | 4.041 |
| O=[N+]([O-])c1ccc(Oc2ccc(Cl)cc2Cl)cc1 [NITROFEN] | 3.203 |
| CN(C)c1ccc(C(=O)c2ccc(N(C)C)cc2)cc1 [MICHLER'S KETONE] | 3.383 |
| CCCN(CCC)c1c([N+](=O)[O-])cc(C(F)(F)F)cc1[N+](=O)[O-] [TRIFLURALIN] | 2.96 |
| Nc1ccc(Oc2ccc(N)cc2)cc1 | 2.9 |
| NC(=S)NNC(N)=S | 1.423 |
| C=C(C)[C@H]1CC=C(C)CC1 [D-LIMONENE] | 1.113 |
| ClC(Cl)C(Cl)Cl [1,1,2,2-TETRACHLOROETHANE] | 3.63 |

| Compound | pTD50 |
| --- | --- |
| Clc1cc2c(cc1Cl)Oc1cc(Cl)c(Cl)cc1O2 [2,3,7,8-TETRACHLORODIBENZO-P-DIOXIN] | 8.867 |
| O=C1C2(Cl)C3(Cl)C4(Cl)C(Cl)(Cl)C5(Cl)C3(Cl)C1(Cl)C5(Cl)C24Cl (centres undefined) [KEPONE] | 5.662 |
| Nc1ccc(Cl)c(N)c1 | 1.9 |
| Nc1c(Br)cc(Br)c2c1C(=O)c1ccccc1C2=O [1-AMINO-2,4-DIBROMOANTHRA-QUINONE] | 2.313 |
| ClC(Cl)Cl [CHLOROFORM] | 3.361 |
| ClC(Cl)(Cl)C(Cl)(Cl)Cl [HEXACHLOROETHANE] | 2.683 |
| CCCl [ETHYL CHLORIDE] | 0.93 |
| CC(Cl)(Cl)Cl [TRICHLOROETHANE] | 3.38 |
| C1CCOC1 [TETRAHYDROFURAN] | 1.233 |
| COc1ccc(C)cc1N | 2.639 |
| Nc1ccc2c(c1)C(=O)c1ccccc1C2=O | 2.185 |
| ClC(Cl)Br [BROMODICHLOROMETHANE] | 3.056 |
| O=NN(O)c1ccccc1 [CUPFERRON] | 2.439 |
| Cc1ccc(N)cc1N | 3.66 |
| ClC(Cl)C(Cl)(Cl)Cl [PENTACHLOROETHANE] | 3.39 |
| Clc1ccc(Cl)cc1 [1,4-DICHLOROBENZENE] | 2.328 |
| CCc1ccc(C(c2ccc(CC)cc2)C(Cl)Cl)cc1 | 1.988 |
| CCOC(=O)C(O)(c1ccc(Cl)cc1)c1ccc(Cl)cc1 [CHLOROBENZILATE] | 2.862 |
| c1ccc(NNc2ccccc2)cc1 [HYDRAZOBENZENE] | 3.793 |
| O=C(O)c1cc(/N=N/c2ccc(S(=O)(=O)Nc3ccccn3)cc2)ccc1O [SULFASALAZINE] | 1.866 |
| C=C(Cl)CSC(=S)N(CC)CC [SULFALLATE] | 3.32 |
| C=CC=C [BUTADIENE] | 3.091 |
| O=[N+]([O-])c1ccc2c3c(cccc13)CC2 | 3.638 |
| COc1ccc([N+](=O)[O-])cc1N | 1.93 |
| C1COCCO1 [DIOXANE] | 1.883 |
| Cc1cc(C)c(N)cc1C | 4.344 |
| ClCC(Cl)(Cl)Cl | 2.419 |
